Where “and” joins values, the source holds several entries; their conditions need not be identical. Identical values can stand only once. Like-named read-outs stand apart in the source and are kept apart here. Non-standard residues stand in square brackets, D forms with d. Residues, ends and D or L forms follow the SMILES beside them. *: point of attachment. d(hPhe) = N[C@H](CCc1ccccc1)C(=O)O; Bn = c1ccc(C*)cc1; NHOH = ON*
Key:
MMP-1 [1] = target: T1, MMP-1 (Homo sapiens, UniProt P03956); test: SensoLyte 520 Fluorimetric Assay Kit selectivity assay, MMP-1; assay type: biochemical; conditions: agents tested at 25 nM or at 4 nM (Figure 5)
T1 sequence (P03956 100-269 limits assumed): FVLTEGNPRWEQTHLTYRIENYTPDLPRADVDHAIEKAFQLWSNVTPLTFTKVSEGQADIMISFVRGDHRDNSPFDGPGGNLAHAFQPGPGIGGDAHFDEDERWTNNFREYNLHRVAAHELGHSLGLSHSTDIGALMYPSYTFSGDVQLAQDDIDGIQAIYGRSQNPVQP

MMP-9 [2] = target: T2, MMP-9 (Homo sapiens, UniProt P14780); test: SensoLyte 520 Fluorimetric Assay Kit selectivity assay, MMP-9; assay type: biochemical; conditions: agents tested at 25 nM or at 4 nM (Figure 5)
[3] = Solubility in the dosing formulation; assay type: physicochemical; conditions: 10% DMSO, 40% PEG400, and 10% (2-hydroxypropyl)-Beta-cyclodextrin in PBS
MMP-13 [4] = target: T3, MMP-13 (Homo sapiens, UniProt P45452); test: SensoLyte 520 Fluorimetric Assay Kit selectivity assay, MMP-13; assay type: biochemical; conditions: agents tested at 25 nM or at 4 nM (Figure 5)
[5] = tested on: elastase-induced emphysema (lung tissue destruction); test: Murine model of elastase-induced emphysema, mean linear intercept; assay type: in vivo, C57BL/6 mice; conditions: PPE intranasal, i.p. treatment once daily for 7 days from day 2, read at day 21
[6] = assay type: in vivo; conditions: 30 mg/kg i.p., Balb-C mice; converted from ng/ml
MMP-3 [7] = target: T4, MMP-3 (Homo sapiens, UniProt P08254); test: SensoLyte 520 Fluorimetric Assay Kit selectivity assay, MMP-3; assay type: biochemical; conditions: agents tested at 25 nM or at 4 nM (Figure 5)
hMMP-12 [8] = target: T5, hMMP-12 (Homo sapiens, UniProt P39900); test: SensoLyte 520 MMP-12 Fluorimetric Assay Kit enzymatic inhibition assay; assay type: biochemical
MMP-14 [9] = target: T6, MMP-14 (Homo sapiens, UniProt P50281); test: SensoLyte 520 Fluorimetric Assay Kit selectivity assay, MMP-14; assay type: biochemical; conditions: agents tested at 25 nM or at 4 nM (Figure 5)
MMP-3 [10] = target: T4, MMP-3; conditions: at 55 nM; cited from earlier work
MMP-14 [11] = target: T6, MMP-14; conditions: even at 1 μM; cited from earlier work
MMP-1 [12] = target: T1, MMP-1; conditions: even at 1 μM; cited from earlier work
MMP-9 [13] = target: T2, MMP-9; conditions: even at 1 μM; cited from earlier work
hMMP-12 [14] = target: T5, hMMP-12; conditions: read-out: IC50 for hMMP-12 inhibition; dose response (Figure 2B); cited from earlier work
MMP-13 [15] = target: T3, MMP-13; conditions: even at 1 μM; cited from earlier work

T5 sequence (P39900 106-263): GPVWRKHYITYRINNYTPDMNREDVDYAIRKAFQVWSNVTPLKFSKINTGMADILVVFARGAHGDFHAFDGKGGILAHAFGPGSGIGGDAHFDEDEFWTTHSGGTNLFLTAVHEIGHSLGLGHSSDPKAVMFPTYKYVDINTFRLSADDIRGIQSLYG
T2 sequence (P14780 107-444 limits assumed): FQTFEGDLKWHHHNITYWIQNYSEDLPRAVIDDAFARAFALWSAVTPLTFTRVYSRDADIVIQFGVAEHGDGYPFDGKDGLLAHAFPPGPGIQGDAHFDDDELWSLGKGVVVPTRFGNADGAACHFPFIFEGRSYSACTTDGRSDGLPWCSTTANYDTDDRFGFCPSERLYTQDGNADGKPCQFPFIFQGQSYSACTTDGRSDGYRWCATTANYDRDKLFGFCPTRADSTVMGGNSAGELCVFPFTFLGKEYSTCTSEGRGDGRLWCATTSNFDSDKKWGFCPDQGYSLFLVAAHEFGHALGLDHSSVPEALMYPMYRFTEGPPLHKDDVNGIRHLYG
T4 sequence (P08254 100-272 limits assumed): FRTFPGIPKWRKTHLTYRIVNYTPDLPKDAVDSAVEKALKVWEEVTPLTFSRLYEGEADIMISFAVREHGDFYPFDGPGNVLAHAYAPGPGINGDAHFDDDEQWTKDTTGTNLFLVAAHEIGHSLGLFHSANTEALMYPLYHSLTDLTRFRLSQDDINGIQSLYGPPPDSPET

Structure (SMILES)	inhibition of MMP-1 (MMP-1 [1])	inhibition of MMP-9 (MMP-9 [2])	inhibition of MMP-13 (MMP-13 [4])	emphysema-like pathology (MLI) compared to PPE + vehicle-treated mice [5]	inhibition of MMP-3 (MMP-3 [7])	mode of hMMP-12 inhibition (hMMP-12 [8])	inhibition of MMP-14 (MMP-14 [9])	also measured
COc1ccc(CC[C@@H](NC(=O)[C@H](CCCc2ccccc2)NC(=O)CN2CCOCC2)C(=O)N[C@H](Cc2ccc(C)cc2)C(=O)NO)cc1 [compound 25]	did not display significant inhibition	did not display significant inhibition	did not display significant inhibition	significant decrease	appreciable inhibition	competitive inhibitors	did not display significant inhibition	solubility in formulation [3]: soluble; peak plasma drug concentration [6]: ~ 580 nM
COc1ccc(CCC[C@H](NC(=O)CN2CCOCC2)C(=O)N[C@H](CCc2ccc(OC)cc2)C(=O)N[C@H](Cc2ccc(C)cc2)C(=O)NO)cc1 [compound 26]	did not display significant inhibition	did not display significant inhibition	did not display significant inhibition	significant decrease	appreciable inhibition	competitive inhibitors	did not display significant inhibition	
CC(=O)N[C@@H](COCc1ccccc1)C(=O)N[C@H](CCc1ccccc1)C(=O)N[C@H](Cc1ccccc1)C(=O)NO [compound 1] (Ac-Ser(Bn)-[d(hPhe)]-[dF]-{NHOH})								inhibition of MMP-3 (MMP-3 [10]): ~ 19%; inhibition of MMP-14 (MMP-14 [11]): did not significantly inhibit; inhibition of MMP-1 (MMP-1 [12]): did not significantly inhibit; inhibition of MMP-9 (MMP-9 [13]): did not significantly inhibit; IC50 (hMMP-12 [14]): ~0.03 µM and 0.0297 µM; inhibition of MMP-13 (MMP-13 [15]): did not significantly inhibit
CNC(=O)[C@H](Cc1c[nH]c2ccccc12)NC(=O)[C@@H](CC(=O)NO)CC(C)C [GM6001, reference compound]					appreciable inhibition			
COC(=O)Nc1ccc2oc3cc(S(=O)(=O)N[C@H](C(=O)O)C(C)C)ccc3c2c1 [MMP408, (S)-2-(8-(methoxycarbonylamino)dibenzo[b,d]furan-3-sulfonamido)-3-methylbutanoic acid, reference compound]				significant decrease				

— article PMC8544245 (Journal of medicinal chemistry, 2020)
